Experimental data taken from PubChem BioAssay (NCI).
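Step 1: Grow cells in 96-well plates. Step 2: Expose to compound for 48 hours at 5 concentrations. Step 3: Interpolate endpoints linearly; if unreached, use highest concentration. The concentration for 50% growth inhibition is given as GI50. TGI marks complete inhibition of growth.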

tested on: MDA-MB-231 breast; assay: inhibition of tumour cell growth, NCI panel, 48 h

| Compound | TGI |
| --- | --- |
| COc1ccc(-c2cc(=O)c3c(OC)c(OC)c(OC)cc3o2)cc1 | > 100 µM |

tested on: NCI-H226 lung; assay: inhibition of tumour cell growth, NCI panel, 48 h

| Compound | GI50 | TGI |
| --- | --- | --- |
| CC[CH2][Sn]([CH2]CC)([O]C(=O)c1cccnc1SC)[O][Sn]([CH2]CC)([CH2]CC)[O]C(=O)c1cccnc1SC | 0.614 µM | 1.79 µM |
| Oc1ccc(CN2CCC(N3CCCCC3)CC2)c2cccnc12 | 29 µM | 82.2 µM |
| CC[C@@]1(O)C(=O)OCc2c1cc1n(c2=O)Cc2c-1nc1cc3c(cc1c2CCl)OCO3 | < 0.01 µM | 1.3 µM |
| N#Cc1ccc(O)c(C2=NCC(c3cccc(Oc4ccccc4)c3)O2)c1 (configuration not stated) | 1.7 µM | 11.1 µM |
| CC1(C)OC2[C@@H](CNC(=O)NC(=O)NC(=O)CI)O[C@@H](n3cnc4c(NC(=O)Nc5ccccc5)ncnc43)[C@H]2O1 (some centres not stated) | 8.96 µM | 20.3 µM |
| COc1cc(C2=C(c3ccccc3)COC2=O)cc(OC)c1OC | 59.2 µM | > 100 µM |
| COc1cc(C2NC(=O)c3ccccc3N2)ccc1OCCCCCOc1c(OC)cc(C2=NOC(c3cc(OC)c(OC)c(OC)c3)C2)cc1OC (configuration not stated) |  | > 100 µM |
| CS(=O)(=O)c1ccc([C@H]2O[C@@H](CO)C[C@]2(O)c2ccc(S(C)(=O)=O)cc2)cc1 | > 100 µM | > 100 µM |
| CC(=O)OC[C@]1(C)C=C2C(=O)[C@](C)(O)C3(CC3)C(C)=C2[C@H]1O | 0.217 µM | 0.634 µM |
| Oc1ccc(NCc2nc3ccccc3[nH]2)cc1 | > 100 µM | > 100 µM |
| C[C@]12CC[C@H]3[C@@H](CC=C4C[C@@H](O)CC[C@@]43C)[C@@H]1CC[C@@H]2N(CCO)CCO |  | > 100 µM |
| O=C1c2cc(Cl)ccc2S(=O)(=O)c2c(NCCCNCCO)nc3ccccc3c21 | 10.1 µM | 22.7 µM |
| CC(C)(C)OC(=O)N1CCc2c(sc3ncnc(N/N=C/c4cccc5ccccc45)c23)C1 | 5.29 µM | 34.7 µM |
| CC[C@@H]1CN(C)[C@H]2Cc3c([nH]c4ccccc34)C(=O)C[C@H]1C2C(=O)OC (some centres not stated) |  | > 100 µM |
| CCN(CC)c1ccc(/C=C/c2ccc3cc(C)ccc3[n+]2CC)cc1 | 0.152 µM | 9.85 µM |
| Cc1ccc2c(c1)[n+]([O-])c(N)n[n+]2[O-] |  | > 100 µM |
| COC1/C=C\C=C(/C)C(=O)NC2=CC(=O)C(=O)C(=C2O)CC(C)CC(OC)C(O)C(C)/C=C(\C)C1OC(N)=O (configuration not stated) |  | > 100 µM |
| O=c1[nH]ncc(Br)c1Br | 2.19 µM | 5.96 µM |
| COc1ccc(-c2cc(=O)c3c(OC)c(OC)c(OC)cc3o2)cc1 |  | > 100 µM |

tested on: SF-268 CNS; assay: inhibition of tumour cell growth, NCI panel, 48 h

| Compound | GI50 | TGI |
| --- | --- | --- |
| CC[CH2][Sn]([CH2]CC)([O]C(=O)c1cccnc1SC)[O][Sn]([CH2]CC)([CH2]CC)[O]C(=O)c1cccnc1SC | 0.33 µM | 0.969 µM |
| Oc1ccc(CN2CCC(N3CCCCC3)CC2)c2cccnc12 | 7.06 µM | > 100 µM |
| CC[C@@]1(O)C(=O)OCc2c1cc1n(c2=O)Cc2c-1nc1cc3c(cc1c2CCl)OCO3 | < 0.01 µM | 4.62 µM |
| N#Cc1ccc(O)c(C2=NCC(c3cccc(Oc4ccccc4)c3)O2)c1 (configuration not stated) | 1.3 µM | > 100 µM |
| CC1(C)OC2[C@@H](CNC(=O)NC(=O)NC(=O)CI)O[C@@H](n3cnc4c(NC(=O)Nc5ccccc5)ncnc43)[C@H]2O1 (some centres not stated) | 8.22 µM | 17.1 µM |
| COc1cc(C2=C(c3ccccc3)COC2=O)cc(OC)c1OC | 2.39 µM | > 76.5 µM |
| COc1cc(C2NC(=O)c3ccccc3N2)ccc1OCCCCCOc1c(OC)cc(C2=NOC(c3cc(OC)c(OC)c(OC)c3)C2)cc1OC (configuration not stated) | 20.8 µM | > 100 µM |
| CS(=O)(=O)c1ccc([C@H]2O[C@@H](CO)C[C@]2(O)c2ccc(S(C)(=O)=O)cc2)cc1 | > 100 µM | > 100 µM |
| CC(=O)OC[C@]1(C)C=C2C(=O)[C@](C)(O)C3(CC3)C(C)=C2[C@H]1O | 0.0384 µM | 0.499 µM |
| Oc1ccc(NCc2nc3ccccc3[nH]2)cc1 | 35.3 µM | > 100 µM |
| C[C@]12CC[C@H]3[C@@H](CC=C4C[C@@H](O)CC[C@@]43C)[C@@H]1CC[C@@H]2N(CCO)CCO |  | > 100 µM |
| O=C1c2cc(Cl)ccc2S(=O)(=O)c2c(NCCCNCCO)nc3ccccc3c21 | 1.7 µM | 4.37 µM |
| CC(C)(C)OC(=O)N1CCc2c(sc3ncnc(N/N=C/c4cccc5ccccc45)c23)C1 | 4.59 µM | > 100 µM |
| CC[C@@H]1CN(C)[C@H]2Cc3c([nH]c4ccccc34)C(=O)C[C@H]1C2C(=O)OC (some centres not stated) |  | > 100 µM |
| CCN(CC)c1ccc(/C=C/c2ccc3cc(C)ccc3[n+]2CC)cc1 | 0.406 µM | 16.5 µM |
| Cc1ccc2c(c1)[n+]([O-])c(N)n[n+]2[O-] |  | > 100 µM |
| COC1/C=C\C=C(/C)C(=O)NC2=CC(=O)C(=O)C(=C2O)CC(C)CC(OC)C(O)C(C)/C=C(\C)C1OC(N)=O (configuration not stated) |  | > 58.9 µM |
| O=c1[nH]ncc(Br)c1Br | 3.02 µM | 12.6 µM |
| COc1ccc(-c2cc(=O)c3c(OC)c(OC)c(OC)cc3o2)cc1 |  | > 100 µM |

tested on: SK-MEL-5 melanoma; assay: inhibition of tumour cell growth, NCI panel, 48 h

| Compound | GI50 | TGI |
| --- | --- | --- |
| CC[CH2][Sn]([CH2]CC)([O]C(=O)c1cccnc1SC)[O][Sn]([CH2]CC)([CH2]CC)[O]C(=O)c1cccnc1SC | 0.898 µM | 3.26 µM |
| Oc1ccc(CN2CCC(N3CCCCC3)CC2)c2cccnc12 | 15.8 µM | 75.9 µM |
| CC[C@@]1(O)C(=O)OCc2c1cc1n(c2=O)Cc2c-1nc1cc3c(cc1c2CCl)OCO3 | < 0.01 µM | 1.13 µM |
| N#Cc1ccc(O)c(C2=NCC(c3cccc(Oc4ccccc4)c3)O2)c1 (configuration not stated) | 0.549 µM | 2.3 µM |
| CC1(C)OC2[C@@H](CNC(=O)NC(=O)NC(=O)CI)O[C@@H](n3cnc4c(NC(=O)Nc5ccccc5)ncnc43)[C@H]2O1 (some centres not stated) | 8.74 µM | 16.2 µM |
| COc1cc(C2=C(c3ccccc3)COC2=O)cc(OC)c1OC | 1.4 µM | 19.3 µM |
| COc1cc(C2NC(=O)c3ccccc3N2)ccc1OCCCCCOc1c(OC)cc(C2=NOC(c3cc(OC)c(OC)c(OC)c3)C2)cc1OC (configuration not stated) | 0.142 µM | 0.546 µM |
| CS(=O)(=O)c1ccc([C@H]2O[C@@H](CO)C[C@]2(O)c2ccc(S(C)(=O)=O)cc2)cc1 | > 100 µM | > 100 µM |
